{
  "source": "patent US20220273779A1",
  "about": "“TAU PEPTIDE ANTIGENS AND ANTIBODIES BINDING THERETO FOR THE TREATMENT OF TAUOPATHIES” (The Board of Regents of the University of Texas System, priority 2018, published 2022)",
  "origin": "cited, not measured here",
  "key": {"[1]": {"conditions": "RRMS, first-line treatments"}},
  "note": "Where two headings read alike, the source gives them in different places.",
  "data": [
    {"substance": "glatiramer acetate", "values": [
      {"measurement": "Irritation at the injection site", "setting": "intramuscular injections", "result": "≤ 33", "unit": "%"},
      {"measurement": "Irritation at the injection site", "setting": "subcutaneous injections", "result": "up to 90%"},
      {"measurement": "Reduction of relapses", "setting": "[1]", "result": "approximately 30%"}
    ]}
  ]
}
